Measured values as given in patent publication US10632169B2, “Methods of using GM604 in modulating ALS disease biomarkers leading to prognosis and therapeutic treatment for ALS disease” (Genervon Biopharmaceuticals, LLC, priority 2015, dated 2020).
Residues, ends and D or L forms follow the SMILES beside them.

Legend:
[1] = shown in U.S. Pat. No. 8,673,852; cited from earlier work
[2] = GALS-C compassionate use, clinical observations; format: in vivo, human; settings: during the GALS-C trial
Text: GALS Compassionate Use (GALS-C) A ALS patient was first diagnosed with the disease in Q1 2005 and by Q3 2008 was quadriplegic and on a ventilator. The FDA approved a compassionate-use application of the MNTF6mer known as GM604 for this patient (IND #120052) using a protocol that followed the Phase 2A trial. This program was thus dubbed GALS-C. GALS-C Study Design
8. Exploratory clinical outcome measures will include the rate of decline of the ALS Functional Rating Scale Revised (ALSFRS-R), Forced Vital Capacity (FVC), stabilization or improvement in any clonus or spasticity symptoms, speech, swallowing, drooling, lingual/oral muscle, improved time off vent (self-breathing) and any movement or increase movement of any muscle groups. To estimate the participant's rate of progression prior to treatment, an ALSFRS-R of 48 will be assumed at date of symptom onset. There will be 2 weeks of active treatment, followed by 10 weeks of assessment without active treatment.
This compassionate trial follows the similar protocol and same dosing regimen as in the Phase 2A ALS trial. […]
Since the compassionate patient was very advanced, the usual clinical evaluations such as ALS functional rating scale (ALSFRS), forced vital capacity (FVC), and muscle strength were not used. […] The initial CSF before dosing and the CSF sample after the 6th dose were collected and analyzed. […]

[3] = GALS-001 Phase 2A trial, safety and tolerability; format: in vivo, human
Description: A total of twelve patients were enrolled in the ALS Phase 2A study. Six subjects enrolled at Site 1 and six subjects enrolled at Site 2. Dosing was by slow bolus intravenous administration, once a day for 3 times a week for 2 weeks. Eight patients were randomized to receive 320 mg GM604 per dose and four patients to receive placebo. Our inclusion/exclusion criteria required the ALS patients in the Phase 2A trial to be “definite” ALS sufferers according to El Escorial criteria (i.e., the disease progression must involve upper and lower motoneuron and the bulbar region) who had experienced disease onset within 24 months prior to the beginning of the trial. The goal is to enroll fast progressing patients. Our dosing regimen was delivered via intravenous bolus dosing three times a week (Monday, Wednesday, Friday) for two consecutive weeks, for a total of 6 doses. There was no dosing after the two weeks' treatment, and the patients were followed and evaluated for the next ten weeks. The clinical data for the ALSFRS-R, FVC, TUG, and the Grip Strength and HHD were measured at Baseline, Week 2, Week 6, and Week 12.
1. Safety and tolerability were evaluated based on the results of adverse events, vital signs, electrocardiography (ECG) measurements, physical and neurological examinations, safety laboratory monitoring, and hypersensitivity and injection site reactions.

[4] = test system: anterior horn motor neurons isolated from rat lumbar spinal cord explants; settings: naturally occurring and recombinant MNTF1; U.S. Pat. No. 6,309,877; cited from earlier work
surviving motor neurons = settings: in vivo administration; blocked by anti-MNTF1 monoclonal antibody; cited from earlier work

Row | Compound | Blood brain barrier penetration [1] | Adverse side effects [2] | Headache, GM604-treated patients ([3]; 2 patients of 8) [%] | Puncture site pain, GM604-treated patients ([3]; 3 patients of 8) [%] | Falls, GM604-treated patients ([3]; 4 patients of 8) [%] | Patients with at least 1 Treatment-emergent adverse event (TEAE) ([3]; GM604 treatment group, placebo 4 out of 4) | Grade 1 hypersensitivity reactions ([3]; Visit 5, placebo 1 patient) [patient] | Clinical laboratory tests, hematology, urinalysis, ECGs, vital signs, physical and neurological findings vs placebo ([3]; changes over time) | QT or QTcB result ([3]; no GM604 patient above this value) [ms] | Rash, GM604-treated patients ([3]; of 8) [patients] | Serious adverse events (SAE) ([3]; patient 0203, shortness of breath, judged unrelated to the investigational product) | Deaths or withdrawals due to adverse events ([3]; whole study) | Survival in vitro of anterior horn motor neurons [4] | Percentage of surviving motor neurons vs untreated controls (surviving motor neurons)
1 | C[C@H](NC(=O)[C@H](Cc1ccc(O)cc1)NC(=O)[C@H](CCCNC(=N)N)NC(=O)[C@H](CO)NC(=O)[C@@H](N)Cc1ccccc1)C(=O)N[C@@H](CCCNC(=N)N)C(=O)O [GM604, FSRYAR] (H-FSRYAR-OH) | able to penetrate the blood brain barrier | no adverse side effects were noted | 25 | 37.5 | 50 | 5 out of 8 | 1 | no clinically meaningful differences | ≤ 450 | 2 | 1 | No deaths or withdrawals due to adverse events occurred |  | 
2 | MNTF1: motoneuronotrophic factor isolated from rat muscle tissues; recombinant MNTF1-F6 encodes a 33 amino acid sequence (SEQ ID NO:1) (LGTFWGDTLNCWMLSAFSRYARCLAEGHDGPTQ) |  |  |  |  |  |  |  |  |  |  |  |  | selectively enhance the survival | markedly higher percentage of surviving motor neurons
